Values quoted from earlier work in patent US20050163858A1 (priority 2003, published 2005).

How the values were obtained:
serotonin 5HT1A = target: T1, serotonin 5HT1A (Homo sapiens, UniProt P08908)
T1 sequence (P08908 1-422): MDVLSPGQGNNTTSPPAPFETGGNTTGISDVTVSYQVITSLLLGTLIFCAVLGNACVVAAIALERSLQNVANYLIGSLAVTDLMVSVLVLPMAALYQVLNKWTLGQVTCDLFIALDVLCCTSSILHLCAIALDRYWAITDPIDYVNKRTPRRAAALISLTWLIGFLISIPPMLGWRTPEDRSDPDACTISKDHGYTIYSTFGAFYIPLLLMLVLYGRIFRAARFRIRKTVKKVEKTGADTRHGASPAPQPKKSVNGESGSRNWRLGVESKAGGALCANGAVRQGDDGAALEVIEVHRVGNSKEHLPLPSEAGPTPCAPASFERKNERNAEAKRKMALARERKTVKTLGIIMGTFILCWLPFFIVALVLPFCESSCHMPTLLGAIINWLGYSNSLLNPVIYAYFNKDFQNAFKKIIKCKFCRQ

serotonin 5HT2C = target: T2, serotonin 5HT2C (Homo sapiens, UniProt P28335)
T2 sequence (P28335 33-458): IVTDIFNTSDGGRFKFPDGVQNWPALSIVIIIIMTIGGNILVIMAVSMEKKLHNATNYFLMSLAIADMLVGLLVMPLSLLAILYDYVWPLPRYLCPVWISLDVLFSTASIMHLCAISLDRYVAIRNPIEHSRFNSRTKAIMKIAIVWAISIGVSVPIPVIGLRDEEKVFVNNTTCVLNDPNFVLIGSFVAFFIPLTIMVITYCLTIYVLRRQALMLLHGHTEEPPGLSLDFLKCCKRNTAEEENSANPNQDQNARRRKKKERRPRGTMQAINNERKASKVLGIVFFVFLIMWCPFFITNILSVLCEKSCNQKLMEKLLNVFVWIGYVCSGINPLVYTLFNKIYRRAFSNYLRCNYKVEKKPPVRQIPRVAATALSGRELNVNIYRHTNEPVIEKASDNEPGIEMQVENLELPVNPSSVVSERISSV

dopamine D2 = dopamine D2 (Homo sapiens, UniProt P14416)
serotonin 5HT2A = serotonin 5HT2A (Homo sapiens, UniProt P28223)

Measured: in vitro binding affinity

Sequence of serotonin 5HT2A (P28223 whole entry): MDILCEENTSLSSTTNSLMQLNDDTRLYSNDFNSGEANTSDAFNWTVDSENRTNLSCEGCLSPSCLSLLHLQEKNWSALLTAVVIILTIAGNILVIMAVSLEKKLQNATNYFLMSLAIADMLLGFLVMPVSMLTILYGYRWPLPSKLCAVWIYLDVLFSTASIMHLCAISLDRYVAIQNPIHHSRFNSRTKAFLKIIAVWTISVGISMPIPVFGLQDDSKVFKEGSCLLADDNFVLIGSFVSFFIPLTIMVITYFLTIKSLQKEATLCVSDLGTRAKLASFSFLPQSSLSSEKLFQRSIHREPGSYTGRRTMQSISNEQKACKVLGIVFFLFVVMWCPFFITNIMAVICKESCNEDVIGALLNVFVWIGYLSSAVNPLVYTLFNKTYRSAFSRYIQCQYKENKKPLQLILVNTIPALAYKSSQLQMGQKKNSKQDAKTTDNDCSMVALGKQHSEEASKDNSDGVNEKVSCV
Sequence of dopamine D2 (P14416 whole entry): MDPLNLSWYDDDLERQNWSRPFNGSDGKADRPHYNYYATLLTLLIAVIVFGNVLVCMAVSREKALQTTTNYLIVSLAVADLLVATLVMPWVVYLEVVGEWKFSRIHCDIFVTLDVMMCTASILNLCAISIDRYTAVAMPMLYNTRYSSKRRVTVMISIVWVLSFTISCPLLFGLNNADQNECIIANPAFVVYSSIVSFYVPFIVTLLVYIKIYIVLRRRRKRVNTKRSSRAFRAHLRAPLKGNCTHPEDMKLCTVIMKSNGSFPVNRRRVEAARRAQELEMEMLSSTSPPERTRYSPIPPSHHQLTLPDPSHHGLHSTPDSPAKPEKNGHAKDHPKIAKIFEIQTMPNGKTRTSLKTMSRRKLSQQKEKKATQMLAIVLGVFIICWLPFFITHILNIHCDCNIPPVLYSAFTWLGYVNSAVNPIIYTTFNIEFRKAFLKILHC

O=C1Cc2cc(CCN3CCN(c4nsc5ccccc45)CC3)c(Cl)cc2N1 [Ziprasidone, 5-[2-[4-(1,2-benzisothiazol-3-yl)-1-piperazinyl]ethyl]-6-chloro-1,3-dihydro-2H-indol-2-one]
high: serotonin 5HT1A | serotonin 5HT2C | α1-adrenergic receptors | dopamine D2 | serotonin 5HT1D | serotonin 5HT2A
